Measured values taken from ChEMBL document CHEMBL5385972, “New azole derivatives linked to indole/indoline moieties combined with FLC against drug-resistant Candida albicans” (2024).
In brackets after ≈: the same amount, converted by molar mass. Activity calls are given as the source filed them. The rule behind the calls is not given here.

Experiments:
Candida albicans [1] = assay: Synergistic antifungal activity against Candida albicans SC5314 assessed as inhibition of fungal growth incubated for 24 hrs in presence of fluconazole by microdilution assay; type: functional
Candida albicans [2] = assay: Synergistic antifungal activity against FLC-resistant Candida albicans SC5314 assessed as fractional inhibitory concentration index incubated for 24 hrs in presence of fluconazole by microdilution assay; type: functional
Candida albicans [3] = assay: Synergistic antifungal activity against Candida albicans SC5314 assessed as fractional inhibitory concentration index incubated for 24 hrs in presence of fluconazole by microdilution assay; type: functional
Candida albicans [4] = assay: Synergistic antifungal activity against FLC-resistant Candida albicans SC5314 assessed as inhibition of fungal growth incubated for 24 hrs in presence of fluconazole by microdilution assay; type: functional
Candida albicans [5] = assay: Antifungal activity against Candida albicans SC5314 assessed as inhibition of fungal growth incubated for 24 hrs by microdilution assay; type: functional
Cell membrane [6] = assay: Induction of […] membrane permeabilization in Candida albicans SC5314 by measuring red fluorescence incubated for 16 to 24 hrs in presence of fluconazole by propyl iodide dye based multifunctional microplate reader analysis; type: subcellular; conditions: time 16-24 hrs
Candida albicans [7] = assay: Antifungal activity against FLC-resistant Candida albicans SC5314 assessed as inhibition of fungal growth at 3 to 9 ug/ml incubated for 48 hrs by time-kill assay; type: functional, organism-based; conditions: dose 3-9 µg/ml
Candida albicans [8] = assay: Inhibition of mitochondrial function in Candida albicans SC5314 assessed as reduction in ATP production at 3 to 9 ug/ml incubated for 16 hrs by chemiluminescence assay; type: functional; conditions: dose 3-9 µg/ml
Candida albicans [9] = assay: Antifungal activity against Candida albicans SC5314 assessed as morphological change at 3 to 9 ug/ml incubated for 24 hrs by transmission electron microscopic analysis; type: functional, organism-based; conditions: dose 3-9 µg/ml
Candida albicans [10] = assay: Antifungal activity against Candida albicans SC5314 assessed as inhibition of fungal growth at 3 to 9 ug/ml incubated for 24 hrs by crystal violet staining based inverted microscopic analysis; type: functional, organism-based; conditions: dose 3-9 µg/ml
Candida albicans [11] = assay: Synergistic antifungal activity against Candida albicans SC5314 assessed as leakage of intracellular debris incubated for 24 hrs in presence of fluconazole by transmission electron microscopic analysis; type: functional, organism-based
Candida albicans [12] = assay: Synergistic antifungal activity against Candida albicans SC5314 assessed as reduction in ATP production incubated for 16 hrs in presence of fluconazole by chemiluminescence assay; type: functional, organism-based
Candida albicans [13] = assay: Synergistic antifungal activity against Candida albicans SC5314 assessed as increase in intracellular ROS production incubated for 16 hrs in presence of fluconazole by DCFH-DA staining based ELISA; type: functional, organism-based
Candida albicans [14] = assay: Synergistic antifungal activity against Candida albicans SC5314 assessed as decrease in intracellular mitochondrial membrane potential incubated for 16 hrs in presence of fluconazole by JC-1 staining based fluorescence assay; type: functional, organism-based
Cell membrane [15] = assay: Induction of […] membrane permeabilization in Candida albicans SC5314 by measuring red fluorescence at 3 to 9 ug/ml incubated for 16 to 24 hrs by propyl iodide dye based fluorescence microscopic analysis; type: subcellular; conditions: dose 3-9 µg/ml, time 16-24 hrs
Candida albicans [16] = assay: Synergistic antifungal activity against FLC-resistant Candida albicans SC5314 assessed as inhibition of fungal growth incubated for 48 hrs in presence of fluconazole by time-kill assay; type: functional, organism-based
Candida albicans [17] = assay: Synergistic antifungal activity against Candida albicans SC5314 assessed as appearance of incomplete cell wall structure incubated for 24 hrs in presence of fluconazole by transmission electron microscopic analysis; type: functional, organism-based
Candida albicans [18] = assay: Antifungal activity against Candida albicans SC5314 assessed as decrease in mycelial growth at 3 to 9 ug/ml incubated for 24 hrs by crystal violet staining based inverted microscopic analysis; type: functional, organism-based; conditions: dose 3-9 µg/ml
Cell membrane [19] = assay: Induction of […] membrane permeabilization in Candida albicans SC5314 by measuring red fluorescence incubated for 16 to 24 hrs in presence of fluconazole by propyl iodide dye based fluorescence microscopic analysis; type: subcellular; conditions: time 16-24 hrs
Candida albicans [20] = assay: Antifungal activity against FLC-resistant Candida albicans SC5314 assessed as inhibition of fungal growth at 3 ug/ml incubated for 48 hrs by time-kill assay; type: functional, organism-based; conditions: dose 3.0 µg/ml
Candida albicans [21] = assay: Antifungal activity against FLC-resistant Candida albicans SC5314 assessed as inhibition of fungal growth incubated for 24 hrs by microdilution assay; type: functional
Candida albicans [22] = assay: Antifungal activity against Candida albicans SC5314 assessed as morphological change at 3 ug/ml incubated for 24 hrs by transmission electron microscopic analysis; type: functional, organism-based; conditions: dose 3.0 µg/ml
Candida albicans [23] = assay: Inhibition of mitochondrial function in Candida albicans SC5314 assessed as reduction in ATP production at 3 ug/ml incubated for 16 hrs by chemiluminescence assay; type: functional; conditions: dose 3.0 µg/ml
Cell membrane [24] = assay: Induction of […] membrane permeabilization in Candida albicans SC5314 by measuring red fluorescence at 3 ug/ml incubated for 16 to 24 hrs by propyl iodide dye based fluorescence microscopic analysis; type: subcellular; conditions: dose 3.0 µg/ml, time 16-24 hrs

Structure (SMILES) | MIC50 (Candida albicans [1]) [µg/mL] | fractional inhibitory concentration index (FICI) (Candida albicans [2]) | fractional inhibitory concentration index (FICI) (Candida albicans [3]) | MIC50 (Candida albicans [4]) [µg/mL] | MIC50 (Candida albicans [5]) [µg/mL] | also measured
O=C(CCN1CCc2ccc(Cl)cc21)NCCNCC(O)COC(Cn1cncn1)c1ccc(F)cc1F (stereo not given) | 0.35 | 0.05 | 0.26 | 9.22 | > 200 | –
O=C(CCn1ccc2ccc(Br)cc21)NCCNCC(O)COC(Cn1cncn1)c1ccc(F)cc1F (stereo not given) | 0.95 | 0.06 | 0.71 | 11.5 | > 200 | –
O=C(CCn1ccc2cc(Br)ccc21)NCCNCC(O)COC(Cn1cncn1)c1ccc(F)cc1F (stereo not given) | 0.85 | 0.06 | 0.63 | 12.9 | > 200 | –
O=C(CCn1ccc2ccccc21)NCCNCC(O)COC(Cn1cncn1)c1ccc(F)cc1F (stereo not given) | 8.42 | 0.25 | 6.26 | 50 | > 200 | –
O=C(CCn1ccc2ccc(F)cc21)NCCNCC(O)COC(Cn1cncn1)c1ccc(F)cc1F (stereo not given) | 0.79 | 0.17 | 0.59 | 33.9 | > 200 | –
Cc1ccc2c(c1)CCN2CCC(=O)NCCNCC(O)COC(Cn1cncn1)c1ccc(F)cc1F (stereo not given) | 2.03 | 0.05 | 1.51 | 10.2 | > 200 | –
O=C(CCN1CCc2ccc(F)cc21)NCCNCC(O)COC(Cn1cncn1)c1ccc(F)cc1F (stereo not given) | 2.68 | 0.09 | 1.99 | 18.9 | > 200 | –
O=C(CCn1ccc2cc(Cl)ccc21)NCCNCC(O)COC(Cn1cncn1)c1ccc(F)cc1F (stereo not given) | 0.83 | 0.09 | 0.62 | 18.9 | > 200 | –
O=C(CCN1CCc2cc(Br)ccc21)NCCNCC(O)COC(Cn1cncn1)c1ccc(F)cc1F (stereo not given) | 1.14 | 0.01 | 0.85 | 2.82 | > 200 | Activity (Cell membrane [6]): Dose-Dependent Effect; Activity (Candida albicans [7]): inactive; Activity (Candida albicans [8]): inactive; Activity (Candida albicans [9]): inactive; Activity (Candida albicans [10]): inactive; Activity (Candida albicans [11]): Dose-Dependent Effect; Activity (Candida albicans [12]): Dose-Dependent Effect; Activity (Candida albicans [13]): Dose-Dependent Effect; Activity (Candida albicans [14]): Dose-Dependent Effect; Activity (Cell membrane [15]): inactive; Activity (Candida albicans [16]): Dose-Dependent Effect; Activity (Candida albicans [17]): Dose-Dependent Effect; Activity (Candida albicans [18]): inactive; Activity (Cell membrane [19]): Dose-Dependent Effect
CC1Cc2ccccc2N1CCC(=O)NCCNCC(O)COC(Cn1cncn1)c1ccc(F)cc1F (stereo not given) | 9.22 | 0.34 | 6.85 | 67.7 | > 200 | –
O=C(CCN1CCc2ccccc21)NCCNCC(O)COC(Cn1cncn1)c1ccc(F)cc1F (stereo not given) | 5.84 | 0.21 | 4.34 | 42.6 | > 200 | –
COc1ccc2ccn(CCC(=O)NCCNCC(O)COC(Cn3cncn3)c3ccc(F)cc3F)c2c1 (stereo not given) | 1.87 | 0.26 | 1.39 | 52.5 | > 200 | –
O=C(CCN1CCc2ccc(Br)cc21)NCCNCC(O)COC(Cn1cncn1)c1ccc(F)cc1F (stereo not given) | 0.6 | 0.04 | 0.44 | 8.92 | > 200 | –
O=C(CCn1ccc2ccc(Cl)cc21)NCCNCC(O)COC(Cn1cncn1)c1ccc(F)cc1F (stereo not given) | 0.89 | 0.1 | 0.66 | 20 | > 200 | –
O=C(CCN1CCc2cc(Cl)ccc21)NCCNCC(O)COC(Cn1cncn1)c1ccc(F)cc1F (stereo not given) | 1.77 | 0.07 | 1.31 | 14 | > 200 | –
COc1ccc2c(c1)N(CCC(=O)NCCNCC(O)COC(Cn1cncn1)c1ccc(F)cc1F)CC2 (stereo not given) | 11.6 | 0.56 | 8.64 | 111 | > 200 | –
OC(Cn1cncn1)(Cn1cncn1)c1ccc(F)cc1F [FLUCONAZOLE] | – | – | – | – | 1.35 (≈ 4.41 µM) | Activity (Candida albicans [20]): Active; MIC50 (Candida albicans [21]): > 200 µg/mL; Activity (Candida albicans [22]): Active; Activity (Candida albicans [23]): inactive; Activity (Cell membrane [24]): Active
